We go through 16 compounds from patent US8957085B2, “Carboxamide bioisosteres of opiates” (Rensselaer Polytechnic Institute, priority 2010, dated 2015).

The target of one experiment is human δ opioid receptor (Homo sapiens, UniProt P41143). In words: Opioid receptor binding assay, [3H]naltrindole (δ). As to conditions: Ki [3H]Naltrindole (δ), membranes of CHO cells expressing human δ opioid receptor; 0.2 nM [3H]naltrindole; mean ± S.E.
The next experiment concerns the target human κ opioid receptor (Homo sapiens, UniProt P41145). Briefly: biochemical.
The target of another experiment is human μ opioid receptor (Homo sapiens, UniProt P35372). In words: Opioid receptor binding assay, [3H]DAMGO (μ).
For experiment [1] the following is noted: 1 mg/kg ip in mice; cited from earlier work.

As usually defined, the Ki is the dissociation constant of the complex between target and ligand, obtained from inhibition or displacement.

human μ opioid receptor, sequence (P35372 whole entry): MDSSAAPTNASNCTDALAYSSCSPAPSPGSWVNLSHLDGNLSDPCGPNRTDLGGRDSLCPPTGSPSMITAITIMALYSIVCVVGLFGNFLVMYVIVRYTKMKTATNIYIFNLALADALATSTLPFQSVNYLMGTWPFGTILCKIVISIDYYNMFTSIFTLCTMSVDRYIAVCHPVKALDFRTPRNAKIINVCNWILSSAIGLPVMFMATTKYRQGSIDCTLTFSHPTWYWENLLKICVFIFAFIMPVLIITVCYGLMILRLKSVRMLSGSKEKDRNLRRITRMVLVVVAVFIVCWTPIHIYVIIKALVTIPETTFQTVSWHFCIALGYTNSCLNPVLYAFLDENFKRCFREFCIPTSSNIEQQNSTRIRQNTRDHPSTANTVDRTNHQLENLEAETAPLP
human κ opioid receptor, sequence (P41145 whole entry): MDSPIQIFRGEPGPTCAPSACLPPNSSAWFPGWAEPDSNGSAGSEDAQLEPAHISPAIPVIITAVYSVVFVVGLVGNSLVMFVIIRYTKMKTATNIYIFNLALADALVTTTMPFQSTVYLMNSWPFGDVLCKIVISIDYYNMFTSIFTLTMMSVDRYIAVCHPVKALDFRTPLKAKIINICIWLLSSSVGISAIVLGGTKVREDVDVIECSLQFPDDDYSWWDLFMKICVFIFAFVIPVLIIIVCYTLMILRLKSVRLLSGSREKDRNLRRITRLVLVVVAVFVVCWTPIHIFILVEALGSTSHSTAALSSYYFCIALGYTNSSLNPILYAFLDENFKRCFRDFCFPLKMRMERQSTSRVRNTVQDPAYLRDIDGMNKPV
human δ opioid receptor, sequence (P41143 whole entry): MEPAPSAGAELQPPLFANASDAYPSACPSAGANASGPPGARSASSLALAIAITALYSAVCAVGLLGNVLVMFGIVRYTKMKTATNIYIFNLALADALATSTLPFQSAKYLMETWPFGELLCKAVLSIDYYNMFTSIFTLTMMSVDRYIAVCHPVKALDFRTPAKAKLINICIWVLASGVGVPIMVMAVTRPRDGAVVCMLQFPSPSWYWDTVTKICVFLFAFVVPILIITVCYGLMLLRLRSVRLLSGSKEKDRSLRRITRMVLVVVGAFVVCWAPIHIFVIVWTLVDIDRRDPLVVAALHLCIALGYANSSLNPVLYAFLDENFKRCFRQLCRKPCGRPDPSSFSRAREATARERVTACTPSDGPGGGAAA

For `CC1C2Cc3ccc(C(=O)NCCc4ccc(-c5ccc(O)cc5)cc4)cc3C1(C)CCN2CC1CC1` (racemic) [Compound 1], the results for the Ki on human δ opioid receptor and on human κ opioid receptor were 0.81 ± 0.12 nM and 0.49 ± 0.011 nM, respectively.

As for `COc1ccc(-c2ccc(CCNC(=O)c3ccc4c(c3)C3(C)CCN(CC5CC5)C(C4)C3C)cc2)cc1C` (racemic) [Compound 2], the affinity on human δ opioid receptor, expressed as Ki, was 1.5 ± 0.14 nM.

Take `COc1ccc(-c2ccc(CCNC(=O)c3ccc4c(c3)C3(C)CCN(CC5CC5)C(C4)C3C)cc2)c(C)c1` (racemic) [Compound 3]: the values for the Ki at human δ opioid receptor, at human μ opioid receptor and on human κ opioid receptor were 1.1 ± 0.18 nM, 0.23 ± 0.0056 nM and 1.3 ± 0.11 nM, respectively.

With `CCOc1ccc(-c2ccc(CCNC(=O)c3ccc4c(c3)C3(C)CCN(CC5CC5)C(C4)C3C)cc2)cc1` (racemic) [Compound 4], the Ki amounted to 3.4 ± 0.039 nM on human δ opioid receptor and 3.3 ± 0.32 nM on human κ opioid receptor.

Regarding `CC(C)Oc1ccc(-c2ccc(CCNC(=O)c3ccc4c(c3)C3(C)CCN(CC5CC5)C(C4)C3C)cc2)cc1` (racemic) [Compound 5], the Ki at human δ opioid receptor was 1.9 ± 0.21 nM; at human μ opioid receptor, 0.23 ± 0.041 nM.

With `CC(C)Oc1cccc(-c2ccc(CCNC(=O)c3ccc4c(c3)C3(C)CCN(CC5CC5)C(C4)C3C)cc2)c1` (racemic) [Compound 6], the Ki was 3.9 ± 1.4 nM at human δ opioid receptor, 0.43 ± 0.041 nM at human μ opioid receptor and 2.4 ± 0.25 nM on human κ opioid receptor.

Take `CC(C)Oc1ccccc1-c1ccc(CCNC(=O)c2ccc3c(c2)C2(C)CCN(CC4CC4)C(C3)C2C)cc1` (racemic) [Compound 7]: the Ki on human δ opioid receptor was 0.55 ± 0.025 nM; on human κ opioid receptor, 1.8 ± 0.17 nM.

As for `CC1C2Cc3ccc(C(=O)NCCc4ccc(-c5ccc6c(c5)OCO6)cc4)cc3C1(C)CCN2CC1CC1` (racemic) [Compound 8], the Ki amounted to 1 ± 0.12 nM on human δ opioid receptor and 0.73 ± 0.049 nM on human κ opioid receptor.

For the compound `CC1C2Cc3ccc(C(=O)NCCc4ccc(-c5ccc(C#N)cc5)cc4)cc3C1(C)CCN2CC1CC1` (racemic) [Compound 9], the figures for the Ki on human δ opioid receptor, at human μ opioid receptor and at human κ opioid receptor were 3 ± 0.11 nM, 0.017 ± 0.00075 nM and 1 ± 0.095 nM, respectively.

On to `CC1C2Cc3ccc(C(=O)NCCc4ccc(-c5ccc(C=O)cc5)cc4)cc3C1(C)CCN2CC1CC1` (racemic) [Compound 10], for which the inhibition constant Ki on human δ opioid receptor was determined as 2.5 ± 0.12 nM; at human μ opioid receptor, 0.002 ± 0.00029 nM; at human κ opioid receptor it was 1.8 ± 0.038 nM.

Turning to `C[C@H]1C2Cc3ccc(C(=O)NCCc4ccc(-c5ccc(C(N)=O)cc5)cc4)cc3[C@@]1(C)CCN2CC1CC1` (racemic) [Compound 34], the figures for the Ki at human δ opioid receptor, on human μ opioid receptor and on human κ opioid receptor were 1 ± 0.018 nM, 0.0052 ± 0.00055 nM and 0.91 ± 0.066 nM, respectively.

For the compound `C[C@H]1C2Cc3ccc(C(=O)NCCc4ccc(-c5ccc(C(=O)O)cc5)cc4)cc3[C@@]1(C)CCN2CC1CC1` (racemic) [Compound 35], the Ki on human δ opioid receptor is 68 ± 9 nM; at human μ opioid receptor it was 2.3 ± 0.16 nM; on human κ opioid receptor it was 55 ± 4.1 nM.

With `COC(=O)c1ccc(-c2ccc(CCNC(=O)c3ccc4c(c3)[C@@]3(C)CCN(CC5CC5)C(C4)[C@@H]3C)cc2)cc1` (racemic) [Compound 36], the inhibition constant Ki at human δ opioid receptor turned out to be 1.5 ± 0.062 nM; at human μ opioid receptor, 0.0091 ± 0.00071 nM; on human κ opioid receptor it was 1.1 ± 0.13 nM.

With `CC1C2Cc3ccc(C(=O)NCCc4ccc(-c5ccc(O)cc5)cc4)cc3C1(C)CCN2CC1CC1` (single isomer, unassigned) [Compound 1A], the Ki at human δ opioid receptor was 0.78 ± 0.05 nM; on human κ opioid receptor, 0.36 ± 0.018 nM.

For the compound `C[C@H]1C2Cc3ccc(C(N)=O)cc3[C@@]1(C)CCN2CC1CC1` [Compound 8-CAC, 8-carboxamidocyclazocine], the “duration of action (antinociception)” value in experiment [1] was 15 h.

On to `C[C@H]1[C@H]2Cc3ccc(O)cc3[C@]1(C)CCN2CC1CC1` [cyclazocine], for which the “duration of action (antinociception)” value in experiment [1] is on record as 2 h.
